Measurements as given in article PMC11444284, “Chloroplastic ascorbate modifies plant metabolism and may act as a metabolite signal regardless of oxidative stress” (Plant Physiology, 2024).

What was measured:
[1] = target: T1, SBPase (Arabidopsis thaliana, UniProt P46283); assay: malachite green phosphate release assay; assay type: biochemical; conditions: read-out: % inhibition at 10 mM
T1 construct: gene At3g55800
T1 sequence (P46283 75-393): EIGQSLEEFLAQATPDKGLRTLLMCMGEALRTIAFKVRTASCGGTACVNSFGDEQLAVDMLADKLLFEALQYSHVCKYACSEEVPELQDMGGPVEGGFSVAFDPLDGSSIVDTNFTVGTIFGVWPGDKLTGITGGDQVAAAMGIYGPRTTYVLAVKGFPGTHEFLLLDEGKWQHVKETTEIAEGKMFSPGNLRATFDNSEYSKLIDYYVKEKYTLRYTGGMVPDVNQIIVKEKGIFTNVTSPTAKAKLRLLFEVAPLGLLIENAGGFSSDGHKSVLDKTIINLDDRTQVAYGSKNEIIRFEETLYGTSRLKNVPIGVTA

[2] = target: T1, SBPase; assay: malachite green phosphate release assay; assay type: biochemical; conditions: 500 µM; alternative substrate; 15 mM MgCl2, 10 mM DTT; thioredoxin F1-activated; room temperature activation

Structure (SMILES) | inhibition at 10000 µM [1] [%] | malachite green phosphate release assay [2]
O=C1O[C@H]([C@@H](O)CO)C(O)=C1O [Ascorbate] | ~57 | –
O=P(O)(O)OC[C@H]1OC(O)(COP(=O)(O)O)[C@@H](O)[C@@H]1O (some centres unmarked) [fructose-1-6-bisphosphate] | – | conversion rate of the alternative SBPase substrate fructose-1-6-bisphosphate to fructose-6-phosphate
